Consider 9 molecules from US8859060B2, “Protective film of polarizer, polarizer and liquid crystal display device” (FUJIFILM Corporation, priority 2009, dated 2014).

Where “and” joins values, the source holds several entries; their conditions need not be identical. Identical values can stand only once.

One data set is described as follows: Acid dissociation constant by alkali titration in THF/water=6/4. Format: physicochemical. The conditions noted are these: mixed solvent of THF/water=6/4 by volume at 25° C. As to the method:
Preferably, the acid dissociation constant of the organic acid in a mixed solvent of THF/water=6/4 by volume at 25° C. is from 2.5 to 7, more preferably from 2.5 to 6.5, even more preferably from 3 to 5.
`O=C(O)C=Cc1ccccc1` [Cinnamic acid, cinnamic acid, reference compound] returned an Acid dissociation constant of 4.7.

`O=C(O)CC(O)(CC(=O)O)C(=O)O` [Citric acid, citric acid, reference compound]: the Acid dissociation constant came to 4.0.

Take `O=C1NC(=O)N(Cc2ccccc2)C(=O)C1c1ccccc1` (stereo not shown) [Organic acid A]: the Acid dissociation constant was 4.0 and 3.0.

`CCC(Oc1ccc(C(C)(C)CC)cc1C(C)(C)CC)C(=O)Nc1cccc(C(=O)O)c1` (stereo not shown) [Organic acid B] yielded an Acid dissociation constant of 6.6.

In turn, `Nc1c(F)c(F)c(C(=O)O)c(F)c1F` [Organic acid C] yielded an Acid dissociation constant of 5.0.

Take `CC(=O)Nc1c(I)cc(I)c(C(=O)O)c1I` [Organic acid D]: the Acid dissociation constant stood at 4.4.

`CCC(C)(C)c1ccc(OCCCC(=O)O)c(C(C)(C)CC)c1` [Organic acid F, reference compound] returned an Acid dissociation constant of 7.3.

Consider `O=C1NS(=O)(=O)c2ccccc21` [Organic acid H], for which the Acid dissociation constant came to 2.6.

The molecule `O=C(O)c1ccc(C(=O)O)cc1` [Terephthalic acid, reference compound] returned an Acid dissociation constant of 4.5.

The nature of another data set: Solubility in water at 25° C.
Conditions: not given
As for `O=C(O)c1ccc(C(=O)O)cc1` [Terephthalic acid, reference compound], the Solubility to water entry is listed as “More than 1 wt %”.
